# Patent US9315545B2, “Hepcidin mimetic peptides and uses thereof” (MERGANSER BIOTECH, INC., priority 2014, dated 2016)
# Legend:
# [1] = Stability in sodium acetate buffer pH 6 at two temperatures, reversed-phase HPLC; assay type: physicochemical; details: for % Purity of the Compound, 6 Hours 25° C. / % Purity of the Compound, 6 Hours 40° C.: sodium acetate buffer pH 6, 6 hours; for Change in Main Peak % Area After 18 H Incubation, 25° C. / Change in Main Peak % Area After 18 H Incubation, 40° C.: sodium acetate buffer pH 6, 18 h; for % Purity of the Compound, 18 Hours 25° C. / % Purity of the Compound, 18 Hours 40° C.: sodium acetate buffer pH 6, 18 hours; for % Purity of the Compound, Initial: sodium acetate buffer pH 6, initial
# Protocol: Three other compounds were also tested, Compound 2, Compound 3, and Compound 4. Compounds 2, 3, and 4 are modifications of Compound 1 at the sidechain of Cysteine 7. Compound 2 has a disulfide bond attached to Cysteine 7, Compound 3 has thioester bond attached to Cysteine 7, and Compound 4 has an ethyl group attached to the sidechain sulfur of Cysteine 7. The peptides were incubated in sodium acetate buffer pH 6 at two temperature conditions and then analyzed via reversed-phase HPLC. The chromatography performed was with an Ascentis Phenyl 2.7 micron column (4.6×150 mm). The binary gradient (1 ml/min) was 36% to 56% B in 40 minutes followed by an increase to 65% B in 5 minutes where A=0.1% trifluoroacetic acid in water and B=0.1% trifluoroacetic acid in acetonitrile.
# [2] = In vitro stability of compounds in rat plasma (37° C.); assay type: in vitro ADME; details: for half-life: rat, plasma
# Protocol: The in vitro stability of Compounds 1-4 in rat plasma at 37° C. was examined to give an indication of stability in a whole animal model (Table 6).
# [3] = Compound blood levels after subcutaneous administration in the rat (LC/MS); assay type: in vivo; details: in vivo, sc, 7.5 mg/kg
# Protocol: Compounds 1-4 were tested in rats to determine compound pharmacokinetics and hepcidin mimetic activity in vivo as measured by serum iron reduction. The effectiveness of the compounds for serum iron reduction should correlate with the treatment of iron metabolism disorders. Individual compounds, in this example and the following examples were generally formulated in DSPE-PEG(2000) (SUNBRIGHT® DSPE-020CN, NOF America Corporation) (30 mg/mL) and dosed subcutaneously at a compound dose of 7.5 mg/kg.
# The compound was prepared according to the following typical preparation. The dosing solution was prepared (7.5 mg compound/mL in clear solution) by weighing the compound into vial and an aliquot of ethanol is added into the vial and mixture vortexed. DSPE-020CN was added and the solution was vortexed, and, if necessary, the mixture was heated at 37° C. for 10-15 minutes to fully dissolve the DSPE-020CN. The ethanol was evaporated with nitrogen gas stream for 1-3 hours. Sterile water was then added and the mixture was vortexed or, if necessary, sonicated to give a clear solution.
# After subcutaneous injection compound quantities in blood were measured over the subsequent 24 hours via LC/MS.
# [4] = physchem; assay type: physicochemical
# Protocol: Different solvent compositions with different properties that are commonly used as a basis for pharmaceutical compositions were added to known quantities of the indicated compound and mixed. If a clear solution was not obtained, additional solvent was added and the solution mixed. […] For example “50-100” would indicate that the compound was not soluble at 100 mg/mL but upon additional solvent to have a final concentration of 50 mg/mL, the compound was soluble.
# [5] = assay type: physicochemical
# Protocol: An additional critical aspect in drug delivery is retention of solubility with time (physical stability), especially under refrigerated conditions. […] Unexpectedly, clear differences in physical stability were observed between Compound 5 and other compounds with only minor changes in sequence (e.g. Compounds 7 and 8). The combination of unexpected solubility of greater than 100 mg/mL in mildly acidic conditions and lack of significant changes in solution character after refrigeration, are unexpected and advantageous for a pharmaceutical product.
# [6] = Solubility (mg/mL) at Ambient Temperature, 30% PEG 400
# [7] = Solubility (mg/mL) at Ambient Temperature, 50% EtOH/water
# [8] = Solubility (mg/mL) at Ambient Temperature, Water
# [9] = pH 2.3, Solubility (mg/mL) at Ambient Temperature, 10% Tween 80 pH 2.3-2.8
# [10] = pH 2.7, Solubility (mg/mL) at Ambient Temperature, 50% propylene glycol, pH 2.7
# [11] = pH 4.5, Solubility (mg/mL) at Ambient Temperature, 10% Tween 80 pH 4.5-5.0
# [12] = pH 5.5, Solubility (mg/mL) at Ambient Temperature, 10% Tween 80 pH 5.5-6.0
Compound,significant degradation peaks observed by HPLC [1],"% Purity of the Compound, 6 Hours 25° C. [1]","% Purity of the Compound, 6 Hours 40° C. [1]","Change in Main Peak % Area After 18 H Incubation, 25° C. [1]","Change in Main Peak % Area After 18 H Incubation, 40° C. [1]","% Purity of the Compound, 18 Hours 25° C. [1]","% Purity of the Compound, 18 Hours 40° C. [1]","% Purity of the Compound, Initial [1]",In vitro plasma stability (Ratio of compound/benfluorex (std) degradation) [2],half-life [2],AUC(0-t) [3],blood levels of Compound 1 (metabolite) after dosing the labelled compound [3],"solubility [4, 6]","solubility [4, 7]","solubility [4, 8]","solubility [4, 9]","solubility [4, 10]","solubility [4, 11]","solubility [4, 12]",further results
CCCCCCCCCCCCCCCCNC(=O)CN(CC(N)=O)C(=O)CCCCCNC(=O)C(Cc1c[nH]c2ccccc12)NC(=O)C(CCCNC(=N)N)NC(=O)C(CSSC)NC(=O)C(CCCNC(=N)N)NC(=O)CC1CCCN1C(=O)C(NC(=O)C(Cc1c[nH]cn1)NC(=O)C(NC(=O)CNCC(=O)O)C(C)O)C(c1ccccc1)c1ccccc1 (centres unmarked) [Compound 2],no significant degradation peak,99.6%,99.4%,−0.2%,−0.1%,99.3%,99.4%,99.5%,0.98,40 min,1010 ng·h/mL,unexpectedly higher than expected,25 to 35 mg/mL,> 100 mg/mL,50 to 100 mg/mL,60 to 100 mg/mL,50 to 100 mg/mL,50 to 100 mg/mL,25 to 30 mg/mL,"degradation after 18 hours at 40° C. (in words) [1]: little degradation observed; change of solubility with pH (in words) ([4]; pH 4): marked decrease in solubility above pH 4; solubility ([4]; pH 5, Solubility (mg/mL) at Ambient Temperature, 2% Tween 80 pH 5): < 50 mg/mL; solubility ([4]; pH 6.4, Solubility (mg/mL) at Ambient Temperature, 2% Tween pH 6.4): < 10 mg/mL; Solution Appearance after 7 days Storage at 2-8° C., 2% Tween 80 pH 5 ([5]; 2% Tween 80 pH 5): Gel; Solution Appearance after 7 days Storage at 2-8° C., 2% Tween pH 6.4 ([5]; 2% Tween pH 6.4): Gel; Solution Appearance after 7 days Storage at 2-8° C., 10% Tween 80 pH 2.3-2.8 ([5]; 10% Tween 80 pH 2.3-2.8): Gel; Solution Appearance after 7 days Storage at 2-8° C., 10% Tween 80 pH 4.5-5.0 ([5]; 10% Tween 80 pH 4.5-5.0): Gel; Solution Appearance after 7 days Storage at 2-8° C., 30% PEG 400 ([5]; 30% PEG 400): Gel; Solution Appearance after 7 days Storage at 2-8° C., 50% EtOH/water ([5]; 50% EtOH/water): Gel; Solution Appearance after 7 days Storage at 2-8° C., 50% propylene glycol, pH 2.7 ([5]; 50% propylene glycol, pH 2.7): Gel; Solution Appearance after 7 days Storage at 2-8° C., Water ([5]; Water): Gel"
CCCCCCCCCCCCCCCCNC(=O)CN(CC(N)=O)C(=O)CCCCCNC(=O)C(Cc1c[nH]c2ccccc12)NC(=O)C(CCCNC(=N)N)NC(=O)C(CSC(C)=O)NC(=O)C(CCCNC(=N)N)NC(=O)CC1CCCN1C(=O)C(NC(=O)C(Cc1c[nH]cn1)NC(=O)C(NC(=O)CNCC(=O)O)C(C)O)C(c1ccccc1)c1ccccc1 (centres unmarked) [Compound 3],multiple major peaks,96.9%,84.9%,−2.3%,−30%,95.1%,67.2%,97.3%,1.78,73 min,12200 ng·h/mL,comparable to the levels observed when just Compound 1 was dosed,–,–,–,–,–,–,–,degradation after 18 hours at 40° C. [1]: 30%; blood levels relative to those observed in Compound 1 [3]: 5-9 times
CCCCCCCCCCCCCCCCNC(=O)CN(CC(N)=O)C(=O)CCCCCNC(=O)[C@H](Cc1c[nH]c2ccccc12)NC(=O)[C@H](CCCNC(=N)N)NC(=O)[C@H](CSSC)NC(=O)[C@H](CCCNC(=N)N)NC(=O)[C@@H]1CCCN(C(=O)[C@@H](NC(=O)[C@H](Cc2c[nH]cn2)NC(=O)[C@@H](NC(=O)CNCC(=O)O)[C@@H](C)O)C(c2ccccc2)c2ccccc2)C1 [Compound 7],–,–,–,–,–,–,–,–,–,–,–,–,> 35 mg/mL,> 100 mg/mL,50 to 100 mg/mL,> 100 mg/mL,> 100 mg/mL,> 50 mg/mL,50 to 100 mg/mL,–
CCCCCCCCCCCCCCCCNC(=O)CN(CC(N)=O)C(=O)CCCCCNC(=O)[C@H](Cc1c[nH]c2ccccc12)NC(=O)[C@H](CCCNC(=N)N)NC(=O)[C@H](CSSC)NC(=O)[C@H](CCCNC(=N)N)NC(=O)C1CCN(C(=O)[C@@H](NC(=O)[C@H](Cc2c[nH]cn2)NC(=O)[C@@H](NC(=O)CNCC(=O)O)[C@@H](C)O)C(c2ccccc2)c2ccccc2)CC1 [Compound 8],–,–,–,–,–,–,–,–,–,–,–,–,25 to 35 mg/mL,> 100 mg/mL,50 to 100 mg/mL,40 to 70 mg/mL,30 to 50 mg/mL,> 50 mg/mL,50 to 100 mg/mL,–
CCCCCCCCCCCCCCCCNC(=O)CN(CC(N)=O)C(=O)CCCCCNC(=O)[C@H](Cc1c[nH]c2ccccc12)NC(=O)[C@H](CCCNC(=N)N)NC(=O)[C@H](CSSC)NC(=O)[C@H](CCCNC(=N)N)NC(=O)C[C@@H]1CCCN1C(=O)[C@@H](NC(=O)[C@H](Cc1c[nH]cn1)NC(=O)[C@@H](NC(=O)CN(CC(=O)O)C(=O)CNC(C)=O)[C@@H](C)O)C(c1ccccc1)c1ccccc1 [Compound 9],–,–,–,–,–,–,–,–,–,–,–,–,20 to 35 mg/mL,> 100 mg/mL,50 to 100 mg/mL,30 to 50 mg/mL,30 to 50 mg/mL,25 to 50 mg/mL,25 to 35 mg/mL,–
CCCCCCCCCCCCCCCCNC(=O)CN(CC(N)=O)C(=O)CCCCCNC(=O)[C@H](Cc1c[nH]c2ccccc12)NC(=O)[C@H](CCCNC(=N)N)NC(=O)[C@H](CSSC)NC(=O)[C@H](CCCNC(=N)N)NC(=O)CCNC(=O)[C@@H](NC(=O)[C@H](Cc1c[nH]cn1)NC(=O)[C@@H](NC(=O)CNCC(=O)O)[C@@H](C)O)C(c1ccccc1)c1ccccc1 [Compound 10],–,–,–,–,–,–,–,–,–,–,–,–,< 10 mg/mL,< 10 mg/mL,< 25 mg/mL,15 to 20 mg/mL,< 20 mg/mL,< 10 mg/mL,< 10 mg/mL,solubility characteristics compared to the other compounds (in words) [4]: does not improve solubility characteristics
